Experiments:
PSA = experiment: Time required for PSA to hydrolyze 50% (t1/2); assay type: ADME; settings: PSA (enzyme)
DuPro = experiment: Concentration required to kill 50% of tumor cells in PSA nonproducing DuPRO human prostate cancer cell line; assay type: functional, cell-based
LNCaP [1] = experiment: Concentration required to kill 50% of tumor cells in PSA producing LNCaP human prostate cancer cell line; assay type: functional, cell-based
Mus musculus [2] = experiment: Maximum nonlethal drug dose which could be administered (ip) to non tumor bearing nude mice for 5 consecutive days; assay type: functional
LNCaP [3] = experiment: Percentage PSA reduction relative to vehicle control following intraperitoneal injection of conjugate dose for 5 consecutive days to nude mice bearing LNCaP tumor xenografts; assay type: functional, Homo sapiens
Mus musculus [4] = experiment: Percentage weight reduction relative to vehicle control following intraperitoneal (ip) injection of conjugate dose for 5 consecutive days to nude mice bearing LNCaP tumor xenografts( 21.7 umol/kg dose)
Mus musculus [5] = experiment: Percentage weight reduction relative to vehicle control following intraperitoneal (ip) injection of conjugate dose for 5 consecutive days to nude mice bearing LNCaP tumor xenografts(18.9 umol/kg dose); assay type: functional

Structure (SMILES) | half-life (PSA) | EC50 (DuPro) | EC50 (LNCaP [1]) | MTD (Mus musculus [2]) | Reduction (LNCaP [3]) | Reduction (Mus musculus [4]) | Reduction (Mus musculus [5])
COc1cccc2c1C(=O)c1c(O)c3c(c(O)c1C2=O)C[C@@](O)(C(=O)CO)C[C@@H]3OC1CC(NC(=O)[C@H](CC(C)C)NC(=O)[C@H](CO)NC(=O)[C@@H](CCC(N)=O)NC(=O)[C@@H](NC(=O)[C@H](CO)NC(=O)[C@H](C)NC(=O)C2CC(O)CN2C(=O)CCC(=O)O)C2CCCCC2)C(O)C(C)O1 (some centres not stated) | 55 min | 100 µM | 5.7 µM | 28.9 µM/kg | 94% | 72% | –
COc1cccc2c1C(=O)c1c(O)c3c(c(O)c1C2=O)C[C@@](O)(C(=O)CO)C[C@@H]3OC1CC(NC(=O)[C@H](CC(C)C)NC(=O)[C@H](CO)NC(=O)[C@@H](CCC(N)=O)NC(=O)[C@H](Cc2ccc(O)cc2)NC(=O)[C@H](CO)NC(=O)[C@H](C)NC(=O)[C@H](CCCN)NC(C)=O)C(O)C(C)O1 (some centres not stated) | > 1200 min | > 100 µM | 85 µM | >45.3 µM/kg | 22% | – | 26%

Reference: ChEMBL document CHEMBL1134291, “The synthesis of a prodrug of doxorubicin designed to provide reduced systemic toxicity and greater target efficacy” (J Med Chem, 2001)
